According to patent US9066912B2, “Drug-enhanced adhesion prevention” (Ethicon, Inc., priority 2003, dated 2015):
“And” between values parts separate entries of the source, which are not always exact repeats. Identical values can stand only once. “Also recorded” adds a separate entry of the source.

Tests used:
[1] = system: adhesion formation after peritoneal surgery (sidewall injury); experiment: Rabbit peritoneal sidewall adhesion model; type: in vivo; set-up: key to Adhesion Tenacity: 0: No adhesions; 1: mild, easily dissectible adhesions; 2: moderate adhesions; non-dissectible, does not tear organ; 3: dense adhesions; non-dissectible, tears when removed; conditions: for mean adhesion area percentage: placebo control 100±0; for Adhesion Area Percentage / Adhesion Tenacity: individual animals; for efficacy in reducing post-operative adhesions: summary of the examples
Description: Multiple studies to confirm the efficacy of Tranilast in the reduction or inhibition of adhesion formation after peritoneal surgery were performed using a sidewall adhesion model.
(§1) In the peritoneal sidewall model, rabbits were pre-anesthetized with 1.2 mg/kg acetylpromazine and anesthetized with a mixture of 55 mg/kg ketamine hydrochloride and 5 mg/kg xylazine intramuscularly. Following preparation for sterile surgery, a midline laparotomy was performed. A 3 cm×5 cm area of peritoneum and transversus abdominis muscle was removed on the right lateral abdominal wall. The cecum was exteriorized and digital pressure was exerted to create subserosal hemorrhages (trauma and loss of blood flow) over all cecal surfaces. The cecum was then returned to its normal anatomic position. Tranilast contained in a delivery vehicle as described below was placed in an Alzet® miniosmotic pump (Alza Corporation, Palo Alto, Calif.) to allow continuous release of the molecule through the postsurgical interval. The Alzet miniosmotic pump was placed in the subcutaneous space and a delivery tube connected the pump with the site of injury at the sidewall. Only the delivery vehicle was placed in the pump of control rabbits. The abdominal wall and skin were closed in a standardized manner.
After 21 days, the rabbits were sacrificed and the percentage of the area of the sidewall injury that was involved in adhesions was determined. In addition, the tenacity of the adhesion formed was scored using a system as follows:
With the sidewall model, an initial score to represent the overall extent of adhesions is given (0 to 3).
The percentage of a surface of the sidewall involved in adhesions to various organs are given in the tables below to quantify the overall adhesion score. A reduction in the area and the tenacity of the adhesions would be considered beneficial and efficacious.
The efficacy of Tranilast in inhibiting adhesion formation was evaluated using a single pump, filled with one of three dosage levels of mg of Tranilast per ml of delivery vehicle (0.625 mg/ml, 6.25 mg/ml or 62.5 mg/ml), or placebo control (70% Polyethylene glycol 400, 20% Tween 80, 10% N,N-dimethylacetamide (DMAC)). The drug was placed in an Alzet miniosmotic pump and delivered over 7 days at a rate of 10 microliter/hr. The animals were sacrificed after 21 days.
Following the procedure described in Example 1, Tranilast, at one of three dosage levels (0.625, 6.25 or 62.5 mg Tranilast/ml vehicle), and a placebo control (70% Polyethylene glycol 400, 20% Tween 80, 10% N,N-dimethylacetamide (DMAC)) was delivered over 7 days at a rate of 10 microliter/hr.
After 7 days, animals received anesthesia and a small incision was made in the skin after preparation for aseptic surgery. The pump was then replaced with a new pump and drug or placebo was delivered over a second period of 7 days at a rate of 10 microliter/hr.
After 7 more days, some of the animals received anesthesia and a second small incision was made in the skin after preparation for aseptic surgery. Again, the pump was replaced with another new pump and drug or placebo was delivered over a third period of 7 days at a rate of 10 microliter/hr.
All animals were sacrificed after 21 days.
Groups of animals received either oral dosing, or local delivery of Tranilast, or placebo control. In the animals that received local delivery, a single pump, filled with placebo (70% Polyethylene glycol 400, 20% Tween 80, 10% N,N-dimethylacetamide (DMAC)), or Tranilast (6.25 mg/ml), at 10 microliter/hour over 7 days starting with the day of surgery, was placed in the subcutaneous space. Certain animals received oral dosing (approximately 60 mg/kg). Oral dosing was either pre-operatively (once a day for the 5 days prior to surgery, with the last dose given 2 hours prior to surgery) or, in one group, pre- and post-operatively (from day 2 through day 21 post-surgery). For further clarification, the treatment groups are shown below.

[2] = Necropsy observations in the rabbit sidewall adhesion studies; type: in vivo; set-up: key to mild inflammation with granulomas (mark at adhesion tenacity): *: did have mild inflammation with the presence of granulomas; conditions: for mild inflammation with granulomas (mark at adhesion tenacity): individual animals, also seen in vehicle treated animals
Description: as §1
The animals whose adhesion tenacities are marked by (*) did have mild inflammation with the presence of granulomas. The variability in the results may be due to a localized inflammation in […]. As the response was present in the vehicle treated animals, the inflammatory response may be due to prolonged administration of this vehicle. Therefore, the efficacy results might have been underestimated in light of the possible presence of a prolonged inflammatory response.

[3] = system: TGF-β secretion, collagen synthesis, or cellular proliferation; conditions: any of the cellular assays tested to date, e.g. TGF-β secretion; cited from earlier work
[4] = Example 1, 0.625 mg/ml local via pump, 10 microliter/hr over 7 days, sacrifice after 21 days
[5] = Example 1, 6.25 mg/ml local via pump, 10 microliter/hr over 7 days, sacrifice after 21 days
[6] = Example 1, 62.5 mg/ml local via pump, 10 microliter/hr over 7 days, sacrifice after 21 days
[7] = Example 3, oral 60 mg/kg 5 days pre-operatively and 6.25 mg/ml topically (pump, 7 days), 60 mg/kg
[8] = Example 3, oral 60 mg/kg, 5 days pre-operatively and 21 days post-operatively, no pump
[9] = Example 2, 2 and 3 week local dosing
[10] = Example 3, oral and/or local dosing

SMILES: COc1ccc(C=CC(=O)Nc2ccccc2C(=O)O)cc1OC [Tranilast, N-(3,4-dimethoxycinnamoyl) anthranilic acid]
- mean adhesion area percentage ([1]; Example 1, 0.625 mg/ml local, 1 week dosing, p=0.078): 82.9±8.1%
- mean adhesion area percentage ([1]; Example 1, 6.25 mg/ml local, 1 week dosing, p<0.001): 67.1±7.1%
- mean adhesion area percentage ([1]; Example 1, 62.5 mg/ml local, 1 week dosing, p=0.065): 78.6±9.6%
- tenacity of the adhesions formed (analysis of variance on the ranks) ([1]; Example 1, 1 week local dosing, all doses): significant reductions in the tenacity of the adhesions
- area of adhesion formation relative to the control ([1]; Example 1, 1 week local dosing, all doses (0.625, 6.25, 62.5 mg/ml)): reduced the area of adhesion formation
- Adhesion Area Percentage [1, 4]: 100% (4×) and 60% (3×)
- Adhesion Tenacity [1, 4]: 2 (3×) and 1 (3×) and 3
- Adhesion Area Percentage [1, 5]: 70% (2×) and 100% and 80% and 50% (3×)
- Adhesion Tenacity [1, 5]: 1 (5×) and 2 (2×)
- Adhesion Area Percentage [1, 6]: 100% (3×) and 70% (2×) and 30% and 80%
- Adhesion Tenacity [1, 6]: 2 (3×) and 1 (3×) and 3
- mean adhesion area percentage ([1]; Example 2, 0.625 mg/ml local, 2 weeks): 75.1±14.5%
- mean adhesion area percentage ([1]; Example 2, 0.625 mg/ml local, 3 weeks): 48.6±8.8%
- mean adhesion area percentage ([1]; Example 2, 6.25 mg/ml local, 2 weeks): 78.8±12.0%
- mean adhesion area percentage ([1]; Example 2, 6.25 mg/ml local, 3 weeks): 77.1±12.1%
- mean adhesion area percentage ([1]; Example 2, 62.5 mg/ml local, 2 weeks): 72.5±9.8%
- mean adhesion area percentage ([1]; Example 2, 62.5 mg/ml local, 3 weeks): 64.3±10.9%
- tenacity of the adhesions formed (analysis of variance on the ranks) ([1]; Example 2, 2 and 3 week local dosing, all doses): significant reductions in the tenacity of the adhesions
- adhesion formation relative to placebo control ([1]; Example 2, 2 and 3 week local dosing, significant at the high dose at two weeks and at all doses at 3 weeks): reductions in adhesion formation at all doses of drug and at both time points
- Adhesion Area Percentage ([1]; Example 2, 0.625 mg/ml local via pump for 2 weeks (pump replaced at day 7), sacrifice after 21 days): 50% and 100% (4×) and 80% and 0%
- Adhesion Tenacity ([1]; Example 2, 0.625 mg/ml local via pump for 2 weeks, sacrifice after 21 days): 1 (5×) and 0 and 2
- Adhesion Area Percentage ([1]; Example 2, 0.625 mg/ml local via pump for 3 weeks (pump replaced at days 7 and 14), sacrifice after 21 days): 10% and 50% (3×) and 80% and 30% and 70%
- Adhesion Tenacity ([1]; Example 2, 0.625 mg/ml local via pump for 3 weeks, sacrifice after 21 days): 1 (6×) and 2
- Adhesion Area Percentage ([1]; Example 2, 6.25 mg/ml local via pump for 2 weeks (pump replaced at day 7), sacrifice after 21 days): 100% (4×) and 70% and 0% and 80% (2×)
- Adhesion Tenacity ([1]; Example 2, 6.25 mg/ml local via pump for 2 weeks, sacrifice after 21 days): 1 (6×) and 0 and 2
- Adhesion Area Percentage ([1]; Example 2, 6.25 mg/ml local via pump for 3 weeks (pump replaced at days 7 and 14), sacrifice after 21 days): 70% and 100% (4×) and 20% and 50%
- Adhesion Tenacity ([1]; Example 2, 6.25 mg/ml local via pump for 3 weeks, sacrifice after 21 days): 1 (5×) and 2 (2×)
- Adhesion Area Percentage ([1]; Example 2, 62.5 mg/ml local via pump for 2 weeks (pump replaced at day 7), sacrifice after 21 days): 40% and 80% and 100% (3×) and 30% and 60% and 70%
- Adhesion Tenacity ([1]; Example 2, 62.5 mg/ml local via pump for 2 weeks, sacrifice after 21 days): 1 (6×) and 2 (2×)
- Adhesion Area Percentage ([1]; Example 2, 62.5 mg/ml local via pump for 3 weeks (pump replaced at days 7 and 14), sacrifice after 21 days): 50% (2×) and 40% and 30% and 100% (2×) and 80%
- Adhesion Tenacity ([1]; Example 2, 62.5 mg/ml local via pump for 3 weeks, sacrifice after 21 days): 1 (6×) and 2
- mean adhesion area percentage ([1]; Example 3, 6.25 mg/ml local only, p=0.039): 72.9±11.7%
- tenacity of the adhesions formed (analysis of variance on the ranks) ([1]; Example 3, all groups of animals that received the drug): significant reductions in the tenacity of the adhesions
- area of adhesion formation ([1]; Example 3, all groups that received local delivery (Tables 13 and 16)): reductions in the area of adhesion formation
- Adhesion Tenacity ([1]; Example 3, 6.25 mg/ml local via pump over 7 days, no oral dosing): 1
- Adhesion Area Percentage ([1]; Example 3, 6.25 mg/ml local via pump, 10 microliter/hour over 7 days, no oral dosing): 100% (2×) and 60% and 80% (3×) and 10%
- Adhesion Area Percentage [1, 7]: 80% (2×) and 0% and 50% and 60% and 10%
- Adhesion Tenacity [1, 7]: 1 (5×) and 0
- Adhesion Area Percentage ([1]; Example 3, oral 60 mg/kg 5 days pre-operatively and placebo topically (pump)): 100%
- Adhesion Tenacity ([1]; Example 3, oral 60 mg/kg 5 days pre-operatively and placebo topically (pump), 60 mg/kg): 2 (4×) and 1 (2×)
- Adhesion Area Percentage [1, 8]: 100%
- Adhesion Tenacity [1, 8]: 2
- area of adhesion formation / inhibition of adhesion formation ([1]; Example 3, oral dosing alone, pre-operatively or pre- and post-operatively (Tables 14 and 15)): did not reduce the area of adhesion formation; also recorded: no inhibition of adhesion formation
- mean adhesion area percentage ([1]; Example 3, oral pre-operative and post-operative, no local): 100±0%
- mean adhesion area percentage ([1]; Example 3, oral pre-operative with topical 6.25 mg/ml, p=0.002): 46.7±14.1%
- mean adhesion area percentage ([1]; Example 3, oral pre-operative with topical placebo): 100±0%
- inhibition of adhesion formation ([1]; Example 3, pre-operative oral administration in conjunction with local administration): did result in inhibition of adhesion formation
- efficacy in reducing post-operative adhesions ([1]; delivered to the site via a local administrative route): efficacious
- efficacy in reducing post-operative adhesions ([1]; delivered via a systemic route): no efficacy was seen
- clinical signs at necropsy ([2]; Example 1, 1 week local dosing): no clinical signs
- inflammation or granulomas at the site of administration ([2]; Example 1, 1 week local dosing): no inflammation or granulomas were observed
- clinical signs at necropsy [2, 9]: no clinical signs
- inflammation or granulomas at the site of administration [2, 9]: no inflammation or granulomas were observed grossly at the site of administration in the majority of animals
- mild inflammation with granulomas (mark at adhesion tenacity) ([2]; Example 2, 0.625 mg/ml local for 2 weeks): *
- mild inflammation with granulomas (mark at adhesion tenacity) ([2]; Example 2, 6.25 mg/ml local for 2 weeks): *
- mild inflammation with granulomas (mark at adhesion tenacity) ([2]; Example 2, 6.25 mg/ml local for 3 weeks): *
- mild inflammation with granulomas (mark at adhesion tenacity) ([2]; Example 2, 62.5 mg/ml local for 2 weeks): *
- mild inflammation with granulomas (mark at adhesion tenacity) ([2]; Example 2, 62.5 mg/ml local for 3 weeks): *
- clinical signs at necropsy [2, 10]: no clinical signs
- inflammation or granulomas at the site of administration [2, 10]: no inflammation or granulomas were observed
- IC50 values in cellular assays [3]: does not exhibit potent IC50 values
